Article PMC7673538 (PLoS Biology, 2020)
Where “and” joins values, the source holds several entries; their conditions need not be identical. Equal values may be shown once. Read-outs that look alike come from different tables or passages of the source.

Legend:
CV-B3 = assay: microbe, parasite or virus in culture; type: cell-based, coxsackievirus B3; details: for EC50: Enterovirus B
CV-A24v = assay: microbe, parasite or virus in culture; type: cell-based, coxsackievirus A24v
PV-1 = assay: microbe, parasite or virus in culture; type: cell-based, poliovirus 1; details: Enterovirus C
[1] = test system: all representative viruses; type: cell-based
[2] = CVB3, HeLa R19, read-out: CV-B3 EC50 Average
[3] = CVB3, HeLa R19, read-out: CV-B3 Exp 1 EC50
[4] = CVB3, HeLa R19, read-out: CV-B3 Exp2 EC50
[5] = CVB3, HeLa R19, read-out: EC50 Exp1
[6] = CVB3, HeLa R19, read-out: EC50 HelaR19 Average
[7] = CVB3, HeLa R19, read-out: Exp 1 EC50 HelaR19
[8] = CVB3, HeLa R19, read-out: Exp 2 EC50 HelaR19
[9] = CVB3 / genotype 2c, HeLa R19, read-out: EC50 CV-B3 WT
[10] = Coxsackievirus, HeLa R19, read-out: EC50 CV-A24v strain 110386
[11] = Coxsackievirus, HeLa R19, read-out: EC50 CV-A24v strain 110389
[12] = Coxsackievirus, HeLa R19, read-out: EC50 CV-A24v strain 110390
[13] = Coxsackievirus, HeLa R19, read-out: EC50 CV-A24v strain 110392
[14] = Coxsackievirus, HeLa R19, read-out: EC50 Exp2

With `O=C(c1ccco1)N(Cc1ccc(F)cc1)c1ccccc1` [Compound 19b, N-(4-Fluorobenzyl)-N-phenylfuran-2-carboxamide] the “cross-resistance of 19d-resistant CV-B3 virus pools (in words)” value (CV-B3) was “cross-resistant”, the “increase or decrease of antiviral activity against CV-B3” value (CV-B3) was “less than 3 fold” and the EC50 (CV-B3; [2]) was 0.83 µM. It also gave an EC50 (CV-B3; [3]) of 0.73 µM, an EC50 (CV-B3; [4]) of 0.93 µM and an EC50 (CV-B3; [5]) of 0.22 µM. For the same molecule, the EC50 (CV-B3; [6]) was 0.68 µM, the EC50 (CV-B3; [7]) was 0.46 µM and the EC50 (CV-B3; [8]) was 0.89 µM. For the same molecule, the EC50 (CV-B3; [9]) was 0.29 ± 0.05 µM, the EC50 (CV-A24v; [10]) was 2.53 ± 0.45 µM and the EC50 (CV-A24v; [11]) was 5.65 ± 0.23 µM. For the same molecule, the EC50 (CV-A24v; [12]) was 4.16 ± 0.17 µM, the EC50 (CV-A24v; [13]) was 4.35 ± 0.18 µM and the EC50 (CV-A24v; [14]) was 2.98 µM. The EC50 (CV-A24v; read-out: EC50 Exp2) was 5.42 µM and 4.32 µM and 4.53 µM, the EC50 (PV-1; HeLa R19, read-out: EC50 Exp1) was 8.5 µM and the EC50 (PV-1; HeLa R19, read-out: EC50 Exp2) was 9.65 µM. It also gave an EC50 (PV-1; HeLa R19, read-out: EC50 PV-1) of 9.08 ± 0.54 µM.
With `O=C(c1ccco1)N(Cc1ccc(C(F)(F)F)cc1)c1ccccc1` [Compound 19d, N-phenyl-N-(4-(trifluoromethyl)benzyl)furan-2-carboxamide] the “effect of the substitution on antiviral activity against CV-B3 (in words)” value (CV-B3) was “only marginally affected antiviral activity”, the EC50 (CV-B3; CVB3, HeLa R19, […], read-out: EC50 Exp1) was 7.98 µM and the EC50 (CV-B3; [2]) was 0.79 µM. The EC50 (CV-B3; [3]) was 0.73 µM, the EC50 (CV-B3; [4]) was 0.85 µM and the EC50 (CV-B3; [5]) was 1.04 µM. For the same molecule, the EC50 (CV-B3; [6]) was 0.77 µM, the EC50 (CV-B3; [7]) was 0.91 µM and the EC50 (CV-B3; [8]) was 0.63 µM. The EC50 (CV-B3; [9]) was 1.26 ± 0.15 µM, the EC50 (CV-A24v; Coxsackievirus, HeLa R19, read-out: EC50 Average) was 18.6 µM and the EC50 (CV-A24v; [10]) was 15.7 ± 1.32 µM. It also gave an EC50 (CV-A24v; [11]) of 18.6 ± 0.44 µM, an EC50 (CV-A24v; [12]) of 16.8 ± 0.33 µM and an EC50 (CV-A24v; [13]) of 19.1 ± 0.97 µM. For the same molecule, the EC50 (CV-A24v; Coxsackievirus, HeLa R19, read-out: EC50 Exp1) was 17 µM, the EC50 (CV-A24v; [14]) was 14.3 µM and the EC50 (CV-A24v; read-out: EC50 Average) was 16.8 µM. The EC50 (CV-A24v; read-out: EC50 Exp1) was 18.1 µM and 17.1 µM and 20 µM, the EC50 (CV-A24v; read-out: EC50 Exp2) was 19 µM and 16.4 µM and 18.1 µM and the “inhibition in single-cycle viral replication assay (in words)” value [1] was “inhibited all representative viruses”. For the same molecule, the EC50 (PV-1; HeLa R19, read-out: EC50 Exp1) was 21 µM, the EC50 (PV-1; HeLa R19, read-out: EC50 Exp2) was 22.1 µM and the EC50 (PV-1; HeLa R19, read-out: EC50 PV-1) was 21.5 ± 0.54 µM. For the same molecule, the “cytotoxic effect in parallel to single-cycle assay (in words)” value (HeLa R19 cells) was “none of them showed any cytotoxic effect” and the “Cytotoxicity values, % compared to DMSO (Figure 2B)” value (HeLa R19 cells; compound concentration 0.01 µM) was 101.341%.
